Measurements reported in patent US5473074A, “Adenosine diphosphoribose polymerase binding nitroso aromatic compounds useful as retroviral inactivating agents, anti-retroviral agents and anti-tumor agents-54” (priority 1992, dated 1995).

Tests used:
[1] = test system: human leukemia cell lines (855-2, H9, HL-60, K562); assay: [3H]thymidine uptake, human leukemia cell lines (FIG. 2); assay type: cell-based
Procedure: FIGS. 2A-2F are composite of graphs displaying the inhibitory effects of the ADRPT ligands on (FIG. 2A) 855-2 cells (a cell line of human B-cell lineage acute lymphoblastic leukemia), (FIG. 2B) H9 cells (a cell line of human T-cell lineage acute lymphoblastic leukemia), (FIG. 2C) HL-60 cells (a cell line of human acute nonlymphoblastic leukemia) and (FIG. 2D) K562 cells (a cell line of human chronic myelogenous leukemia). These cells were cultured while under the influence of the growth factors in 10% fetal bovine serum (FCS), whereas in (FIG. 2E) and (FIG. 2F) the 855-2 cells were cultured in the presence of autocrine growth factor activity (AGF) or low molecular weight-B-cell growth factor (BCGF, a T-cell derived lymphokine), respectively.

H9 cells = assay: [3H]thymidine uptake, H9 cells; assay type: cell-based, human; conditions: 10% FCS
855-2 cells [2] = assay: Colony formation (CFU) in semi-solid medium, 855-2; assay type: cell-based, human; conditions: single cells in semi-solid medium
L1210 murine leukemia = L1210 murine leukemia in vivo in BDF mice; parameters: species or system mouse; conditions: 2 mg/kg i.p. twice a day
[3] = test system: cancer cells (855-2 and HL-60 leukemia, D32, D37 and CRL 7712 glioblastoma, 186 medulla tumor, L1210 murine leukemia, MDA-468 human breast tumor); assay: Functions of cancer cells in absence or presence of compounds (FIGS. 4-9); assay type: cell-based
Procedure: (§1) Experiments were performed in which the functions of various cancer cells (855-2 and HL-60 leukemia cells, D32, D37 and CRL 7712 glioblastoma cell lines, 186 medulla tumor cell line, L1210 murine leukemia cell line, MDA-468 human breast tumor cell line) and normal cells (neutrophil leukocytes and bone marrow or peripheral blood stream cells) were assessed in the absence or presence of the compounds.

855-2 cells [4] = assay: MTT assay, cytocidal activity; assay type: cell-based, human; conditions: 10 μM, 100,000 cells/ml
Procedure: MTT (3-[4,5-[…]]-2,5-diphenyltetrazolium bromide) at 1 mg/ml was then added for 16 hours. The absorbance of the pelleted cell was then measured at 550 nm after adding DMSO to solubilze the cells.

[5] = test system: HIV-1 (MN strain) virions; assay: Zinc loss from HIV-1 virions treated with NOBA; assay type: biochemical
Procedure: Experiments were performed to determine if NOBA is capable of ejecting zinc from intact virions. HIV-1 (MN strain) was produced, purified and concentrated as described in Bess et al., J. Virol. 66:840-847 (1992). The concentrated virus was diluted to 60 times that of culture fluid in TNE buffer (0.01M Tris-HCl, 0.1M NaCl, 1 mM EDTA, pH 7.2) and incubated with 3000 or 6000 μM NOBA at 37° C. The virus was then pelleted and washed with TNE buffer to remove weakly bound zinc. The quantity of zinc in the resulting viral pellets was determined as described in Bess et. al., J. Virol. 66:840-847 (1992).

[6] = PHA-PBL viability (MTT dye reduction); assay type: cell-based; conditions: human, read-out: concentration tolerated by human lymphocytes without major changes in cell metabolism
Procedure: PHA-PBL (10^6 /ml) were treated with increasing doses of NOBA for 24 hours in the presence of MTT substrate and the relative absorbance at 550 nm reflects the metabolic activity of the cells. The level of product formation in the absence of NOBA was considered to be 100% and all experimental values were normalized to that control value.
Experiments were performed in which the incubations with NOBA was carried out at 0°, 22°, and 37° C. […] In agreement with the negligible cytotoxic effect of C-nitroso drugs on non-tumor cells described elsewhere in this application, human lymphocytes tolerated NOBA up to 50 μM without major changes in cell metabolism, which was assayed by quantitative dye reduction as described in Mosaran, J. Imm. Methods 65:55-63 (1983).

calf thymus ADPRT = calf thymus ADPRT (Bos taurus, UniProt P18493); assay: ADPRT polymerase activity inhibition/inactivation (I50)
Sequence of calf thymus ADPRT (P18493 whole entry): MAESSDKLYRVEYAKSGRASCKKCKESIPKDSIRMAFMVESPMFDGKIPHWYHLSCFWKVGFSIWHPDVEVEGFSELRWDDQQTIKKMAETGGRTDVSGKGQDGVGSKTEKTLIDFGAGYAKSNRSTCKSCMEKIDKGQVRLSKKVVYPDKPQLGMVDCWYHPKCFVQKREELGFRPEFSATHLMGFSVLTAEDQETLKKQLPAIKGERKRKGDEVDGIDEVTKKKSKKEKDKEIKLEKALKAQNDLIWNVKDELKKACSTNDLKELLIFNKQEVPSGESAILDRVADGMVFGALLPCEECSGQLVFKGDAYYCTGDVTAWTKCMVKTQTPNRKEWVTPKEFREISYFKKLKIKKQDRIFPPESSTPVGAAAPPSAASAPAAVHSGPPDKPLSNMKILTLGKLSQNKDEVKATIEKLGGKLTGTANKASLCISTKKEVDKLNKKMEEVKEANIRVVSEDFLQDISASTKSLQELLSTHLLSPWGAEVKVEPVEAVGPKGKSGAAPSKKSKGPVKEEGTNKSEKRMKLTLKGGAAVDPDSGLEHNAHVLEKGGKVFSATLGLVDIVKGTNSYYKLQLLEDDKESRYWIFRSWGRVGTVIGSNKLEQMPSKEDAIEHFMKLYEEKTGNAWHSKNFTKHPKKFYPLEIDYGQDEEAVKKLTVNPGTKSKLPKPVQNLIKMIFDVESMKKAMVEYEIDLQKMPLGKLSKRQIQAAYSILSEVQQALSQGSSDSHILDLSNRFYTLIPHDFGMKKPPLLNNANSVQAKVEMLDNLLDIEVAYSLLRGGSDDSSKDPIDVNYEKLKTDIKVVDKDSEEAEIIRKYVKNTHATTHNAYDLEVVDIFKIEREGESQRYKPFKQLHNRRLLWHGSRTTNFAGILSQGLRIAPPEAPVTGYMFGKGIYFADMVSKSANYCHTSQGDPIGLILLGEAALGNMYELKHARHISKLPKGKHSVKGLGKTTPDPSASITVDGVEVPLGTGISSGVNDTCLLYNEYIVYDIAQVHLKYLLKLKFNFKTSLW
Procedure: The compounds of the subject invention were tested for their ability to inactivate the polymerase activity of adenosinediphosphoribosyl transferase (ADPRT). Assays were performed according to the method of Buki and Kun, Biochem. 27:5990-5995 (1988), using calf thymus ADPRT.
Assay conditions: ADPRT, 0.4 μg; coDNA, 4 μg; inhibitor diluted
between 0.8 and 600 μM, in 50 μl of 50 mM TrisHCl, 50 mM KCl, 5 mM
2mercaptoethanol, 0.5 mM EDTA, 0.1 mM NAD ([32Plabelled), pH 7.5.
Polymerization at 25° C. for 4 minutes.

[7] = test system: normal cells (neutrophil leukocytes and bone marrow or peripheral blood stem cells); assay: Functions/viability of normal cells in absence or presence of compounds
Procedure: as §1

## NC(=O)c1cccc(N=O)c1 [NOBA, 3-nitrosobenzamide]
[1]; 10 μM, 855-2, H9, HL-60, K562 cells
  inhibition of 3H-thymidine uptake, in words: powerfully inhibited 3H-thymidine uptake
[1]; each of the cell lines tested
  molar concentrations needed to inhibit 3H-thymidine uptake, in words: able to inhibit 3H-thymidine uptake in lower molar concentrations than the other compounds
H9 cells; 250 μM
  inhibition of thymidine uptake, H9: almost complete inhibition
H9 cells; Homo sapiens, H9, 10 μM
  inhibition at 10 µM: ~75%
H9 cells; Homo sapiens, H9, 100 μM
  inhibition at 100 µM: ~85%
855-2 cells [2]
  colony formation, 855-2, in words: inhibit the ability of human leukemic cells (855-2 and HL-60) to form colonies
L1210 murine leukemia; 6 consecutive days, untreated 10 days, 35 days = end of observation
  life span of L1210-bearing BDF mice: 35 days
L1210 murine leukemia; 6 days
  in vivo chemotherapeutic response, in words: highly significant in vivo chemotherapeutic response
  toxic effects in mice: no toxic effects
[3]
  activity against tumor cells, in words: highly effective (against tumor cells)
855-2 cells [4]
  killing of 855-2 cells (MTT), in words: complete killing
[5]; 3,000 μM, 2 h, 37° C.
  Zinc Loss: 52%
[5]; 3,000 μM, 2 h, 37° C., control 0.21
  Zinc, NOBA-Treated Sample: 0.11 µg/mL
[5]; 6,000 μM, 4 h, 37° C.
  Zinc Loss: 83%
[5]; 6,000 μM, 4 h, 37° C., control 0.24
  Zinc, NOBA-Treated Sample: 0.04 µg/mL
[5]; 3000 or 6000 μM, 37° C.
  losses of the viral zinc: 50-83%
[5]; concentrated suspensions (60×)
  infectivity of HIV-1 virions, in words: complete loss of infectivity
[5]; p24 and gp120 competition RIA, SDS-PAGE
  loss of viral proteins in the pellet, in words: No significant loss of viral proteins
[6]
  MNTC at 24 h: ≥ 50 µM
Calf thymus ADPRT
  IC50: 15 µM
[7]; anti-leukemic doses, soft agar, rhesus bone marrow or human peripheral blood stem cells
  effect on normal stem cell colony formation (FIG. 5), in words: minimal effect on normal cells
[7]; tumor cell inhibitory concentrations
  effect on viability of normal cells, in words: not to affect adversely the viability of normal cells
